Assay results reported in US20150290227A1, “USE OF HAMAMELITANNIN FOR THE TREATMENT OF STAPHYLOCOCCAL INFECTIONS” (priority 2006, published 2015).
“And” between values parts separate entries of the source, which are not always exact repeats. Equal entries are not always repeated.

What was measured:
S. aureus strain = assay: Bacterial growth in vitro / MIC; type: cell-based
S. aureus cells = assay: S. aureus cell attachment in vitro in polystyrene plates; type: cell-based; settings: for reduction of cell attachment (in words): 0-50 μg, 3 hrs at 37° C., OD 595 nm; for amount most effective in reducing cell attachment: converted dose
Method: Attached cells were stained and OD595nm was determined.
To test for the effect of hamamelitannin on bacterial attachment in vitro, S. aureus cells were incubated with 0-50 μg hamamelitannin or RIP in polystyrene plates for 3 hrs at 37° C. Adherent bacteria were stained with methylene blue and OD determined at 595 nm.

RNAIII = RNAIII production in S. aureus cells containing rnaiii::blaZ fusion construct, measured as β-lactamase activity; type: cell-based; settings: for inhibition of RNAIII synthesis (in words): 0-50 μg
Method: RNAIII levels were determined as β-lactamase activity (reporter gene product) and denoted as Vmax.
To test if hamamelitannin is a quorum sensing inhibitor and thus suppresses RNAIII synthesis, 2×10^7 cells were incubated with increasing amounts (0-50 μg) of hamamelitannin (or RIP). RNAIII levels were measured as β-lactamase activity as a reporter gene product by the addition of nitrocefin as substrate. […] Hamamelitannin (2′,5-di-O-galloyl hamamelose) was purchased from Chromadex, Inc. (93% purity, as assessed by HPLC by the manufacturer). Hamamelitannin was dissolved in water at 25 mg/ml and stored at −70° C. until use.

MRSA [1] = assay: Rat graft-associated infection, bacteria pre-incubated with agent, MRSA challenge; type: in vivo, S. aureus; settings: for amount that could prevent an infection: infection caused by 2×10^7 CFU MRSA, rat graft
Method: (§1) FIG. 6 is a graph presentation of the effectiveness of bacterial graft-associated infection inhibition by hamamelitannin and RIP against challenge by methicillin resistant S. aureus and S. epidermidis (MRSA and MRSE) using pre-incubation.
(§2) To measure the amount of hamamelitannin necessary to prevent device-associated infections, bacteria (2×10^7 MRSA or MRSE) were pre-incubated with increasing amounts of hamamelitannin for 30 min at room temperature. Grafts were implanted and rats were challenged with the pre-incubated bacteria. Seven days later the graft was removed and bacterial load determined. […] No bacteria was found when either MRSA or MRSE were pre-incubated with >20 μg hamamelitannin.
(§3) In the testing reflected in FIG. 6 and summarized above, to ascertain the amount of hamamelitannin/bacteria necessary to potentially prevent device-associated infections, bacteria (2×10^7 MRSE or MRSA in 150 μl saline) were pre-incubated with hamamelitannin (0, 0.5, 10, 20, 30, 50 μg) for 30 min at room temperature, as noted. Grafts were implanted and rats were challenged with the pre-incubated bacteria. Seven days later the graft was removed and bacterial load determined. […] When the bacteria was treated with 0.5, 10, 20, 30 or 50 μg hamamelitannin, MRSE load was 8.4×10^3±2.2×10^3 for 0.5 μg and 8.7×10^1±6.6×10^1 for 10 μg.

MRSE [2] = assay: Rat graft-associated infection, bacteria pre-incubated with agent, MRSE challenge; type: in vivo, S. epidermidis; settings: for amount that could prevent an infection: infection caused by 2×10^7 CFU MRSE, rat graft
Method: as §1, §2, §3

[3] = test system: cell damage induced by peroxides or UVB radiation; settings: cited from earlier work
[4] = test system: tumor necrosis factor α-mediated endothelial cell death; settings: cited from earlier work
MRSE [5] = assay: Rat graft-associated infection, local treatment (graft soak), MRSE challenge; type: in vivo, S. epidermidis; settings: for bacterial load on graft: day 7
Method: (§4) FIG. 7 is a graph presentation of the effectiveness of bacterial graft-associated infection inhibition by hamamelitannin against challenge by MRSA and MRSE using local treatment (graft soak).
(§5) To test if hamamelitannin could inhibit graft-associated infection, grafts (1 cm^2 collagen coated Dacron) were soaked for 1 h in increasing hamamelitannin concentrations. The graft was then implanted into the animal, and bacteria injected onto the graft. Seven days later the graft was removed and bacteria on the graft counted.

MRSA [6] = assay: Rat graft-associated infection, local treatment (graft soak), MRSA challenge; type: in vivo, S. aureus
Method: as §4, §5

## CC1(C)S[C@@H]2[C@H](NC(=O)[C@H](N)c3ccccc3)C(=O)N2[C@H]1C(=O)O [ampicillin, reference compound]
S. aureus strain; same S. aureus strain
  MIC of ampicillin (reference drug): 0.2 uM per 1000 bacteria

## RIP: RNAIII-inhibiting peptide, sequence YSPWTNF, antagonist of RAP [reference compound]
S. aureus cells
  reduction of cell attachment (in words): reduced cell attachment in a dose-dependent manner
  amount most effective in reducing cell attachment: 0.4 picomoles/10^3 bacteria
RNAIII
  minimal dose inhibiting RNAIII production: 0.5 picomoles per 1000 bacteria
RNAIII; 2×10^7 cells, 2.5 hrs
  inhibition of RNAIII synthesis (in words): inhibited RNAIII production in a dose dependent manner
  dose most effective in inhibiting RNAIII synthesis: 8 μg/2×10^7 bacteria
RNAIII; converted dose
  dose most effective in inhibiting RNAIII synthesis: 0.5 picomoles/10^3 bacteria
MRSA [1]
  amount that could prevent an infection: 10 µg
MRSE [2]
  amount that could prevent an infection: 10 µg

## O=C(OC[C@H]1OC(O)[C@@](O)(COC(=O)c2cc(O)c(O)c(O)c2)[C@@H]1O)c1cc(O)c(O)c(O)c1 (stereo partly drawn) [hamamelitannin, 2′,5-di-O-galloyl hamamelose]
S. aureus cells
  reduction of cell attachment (in words): reduced cell attachment in a dose-dependent manner
  amount most effective in reducing cell attachment: 0.4 picomoles/10^3 bacteria
[3]
  minimum concentration with high protective activity against cell damage: 50 µM
RNAIII
  minimal dose inhibiting RNAIII production: 0.2 picomoles per 1000 bacteria
RNAIII; 2×10^7 cells, 2.5 hrs
  inhibition of RNAIII synthesis (in words): inhibits RNAIII synthesis in a dose dependent manner
  dose most effective in inhibiting RNAIII synthesis: > 2 μg/2×10^7 bacteria
S. aureus strain; S. aureus
  concentration affecting bacterial growth in vitro (no effect even at concentrations as high as): > 2.5 mM per 1000 bacteria
S. aureus strain; same S. aureus strain
  highest concentration without effect on growth relative to the MIC of ampicillin: 13,000 times
MRSA [1]
  amount that could prevent an infection: 10 µg
MRSA [1]; rat, 2×10^7 MRSA pre-incubated 30 min, graft removed after seven days
  amount at which no bacteria was found on graft: > 20 µg
MRSA [1]; rat, 2×10^7 MRSA pre-incubated with 0.5 μg, day 7
  MRSA load on graft: 8.8×10^3±2.3×10^3 CFU/mL
MRSA [1]; rat, 2×10^7 MRSA pre-incubated with 10 μg, day 7
  MRSA load on graft: 3.6×10^2±0.8×10^2 CFU/mL
MRSA [1]; rat, 2×10^7 MRSA pre-incubated with 20, 30 or 50 μg, day 7
  MRSA graft infection (in words): No sign of infection
[4]
  concentration inhibiting tumor necrosis factor α-mediated endothelial cell death: less than 100 uM
MRSE [5]; MRSE, graft pre-soaked with 0.5 mg/L
  bacterial load on graft: 9.0×10^4±2.6×10^4 CFU/mL
MRSE [5]; MRSE, graft soaked with 10 mg/L
  bacterial load on graft: 2.1×10^3±0.2×10^3 CFU/mL
MRSE [5]; MRSE, graft soaked with 30 or 50 mg/L
  bacterial load on graft: < 10 CFU/mL
MRSE [5]; challenge 2×10^7, MRSE
  pre-soak concentration at which grafts show no signs of infection: at least 30 mg/L and ~60 uM
MRSE [5]; grafts presoaked 1 h, 0-50 mg/L, MRSE
  decrease in bacterial load versus untreated control (in words): Significant (p<0.05) decrease in bacterial load
MRSA [6]; MRSA, graft pre-soaked in 30 or 50 mg/L, day 7
  bacterial load on graft (in words): no bacterial load was detected
MRSA [6]; MRSA, graft soaked with 0.5 mg/L, day 7
  bacterial load on graft: 9.3×10^4±2.8×10^4 CFU/mL
MRSA [6]; MRSA, graft soaked with 10 mg/L, day 7
  bacterial load on graft: 2.6×10^3±0.3×10^3 CFU/mL
MRSA [6]; MRSA, graft soaked with 20 mg/L, day 7
  bacterial load on graft: 3.7×10^1±1.1×10^1 CFU/mL
MRSA [6]; challenge 2×10^7, MRSA
  pre-soak concentration at which grafts show no signs of infection: at least 30 mg/L and ~60 uM
MRSA [6]; grafts presoaked 1 h, 0-50 mg/L, MRSA
  decrease in bacterial load versus untreated control (in words): Significant (p<0.05) decrease in bacterial load
MRSE [2]
  amount that could prevent an infection: 10 µg
MRSE [2]; rat, 2×10^7 MRSE pre-incubated 30 min, graft removed after seven days
  amount at which no bacteria was found on graft: > 20 µg
MRSE [2]; rat, 2×10^7 MRSE pre-incubated with 0.5 μg, day 7
  MRSE load on graft: 8.4×10^3±2.2×10^3 CFU/ml
MRSE [2]; rat, 2×10^7 MRSE pre-incubated with 10 μg, day 7
  MRSE load on graft: 8.7×10^1±6.6×10^1 CFU/ml
MRSE [2]; rat, 2×10^7 MRSE pre-incubated with 20, 30 or 50 μg, day 7
  MRSE graft infection (in words): No sign of infection
